US8263606B2 (Xenon Pharmaceuticals Inc., priority 2008, dated 2012)

How the values were obtained:
CYP3A4 = CYP3A4 (Homo sapiens, UniProt P08684); experiment: Cytochrome P450 (CYP450) Inhibition Assay, CYP3A4 (Vivid fluorescence, BOMCC substrate); settings: human, P450 Baculosomes (recombinant CYP3A4), probe BOMCC (Vivid substrate)
sodium channel = experiment: Guanidine influx assay (14C-guanidine radiotracer flux, in vitro); type: cell-based, human or rat; settings: guanidine influx assay using a known cell line that expresses a sodium channel; activity level class
Outline: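 Cells stably expressing human or rat sodium channels (~100,000/well, 20–24 h) were exposed in low-sodium choline buffer to test agent plus aconitine activator and 14C-guanidine at ambient temperature. Intracellular 14C-guanidine was counted by scintillation; IC50 fitted by 4-parameter logistic over half-dilutions around 1 μM.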

Chain of CYP3A4 (P08684 whole entry): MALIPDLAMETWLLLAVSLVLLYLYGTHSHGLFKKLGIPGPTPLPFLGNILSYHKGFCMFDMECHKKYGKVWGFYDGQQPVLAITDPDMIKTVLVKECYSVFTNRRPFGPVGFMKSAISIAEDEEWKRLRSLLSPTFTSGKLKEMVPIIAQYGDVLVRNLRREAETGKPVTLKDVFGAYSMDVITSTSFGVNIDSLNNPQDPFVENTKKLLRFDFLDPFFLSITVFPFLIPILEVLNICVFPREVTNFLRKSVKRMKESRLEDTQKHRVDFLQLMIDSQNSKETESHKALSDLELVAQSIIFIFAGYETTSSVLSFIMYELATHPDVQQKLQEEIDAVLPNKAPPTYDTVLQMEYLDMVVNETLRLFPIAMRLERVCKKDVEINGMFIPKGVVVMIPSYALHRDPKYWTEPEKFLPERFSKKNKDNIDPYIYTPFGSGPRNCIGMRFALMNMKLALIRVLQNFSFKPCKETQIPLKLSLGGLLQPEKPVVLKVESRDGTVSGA

| SMILES | inhibition at 10 µM (CYP3A4) [%] | melting point [°C] | IC50 (sodium channel) [µM] |
| --- | --- | --- | --- |
| COc1ccc(CN2C(=O)C3(COc4cc(F)c(C#N)cc43)c3ccccc32)cc1 (stereo not drawn) [Example 2.40, 6-fluoro-1′-(4-methoxybenzyl)-2′-oxo-1′,2′-dihydrospiro[1-benzofuran-3,3′-indole]-5-carbonitrile] | > 50 | 142 to 143 | 1 to 10 |
| COc1ccc(CN2C(=O)C3(COc4cc5c(C)noc5cc43)c3ccccc32)cc1 (stereo not drawn) [Example 2.41, 1′-(4-methoxybenzyl)-3-methylspiro[furo[2,3-f][1,2]benzisoxazole-7,3′-indol]-2′(1′H)-one] | > 50 | 183 to 184 | 1 to 10 |
| O=C1N(C(c2ccccc2)c2ccccc2)c2ccccc2C12COc1cc(F)c(F)cc12 (stereo not drawn) [Example 2.61, 1′-(diphenylmethyl)-5,6-difluorospiro[1-benzofuran-3,3′-indol]-2′(1′H)-one] | < 50 | 213 to 216 | ≥ 10 |
| O=C1Nc2ccc(F)cc2C12COc1cc3c(cc12)CCO3 (stereo not drawn) [Example 3.4, 5′-fluoro-5,6-dihydrospiro[benzo[1,2-b:5,4-b′]difuran-3,3′-indol]-2′(1′H)-one] | > 50 | 257 to 259 | 1 to 10 |
| O=C1Nc2cc(F)ccc2C12COc1cc3c(cc12)CCO3 (stereo not drawn) [Example 3.5, 6′-fluoro-5,6-dihydrospiro[benzo[1,2-b:5,4-b′]difuran-3,3′-indol]-2′(1′H)-one] | > 50 | 249 to 251 | 1 to 10 |
| COc1cc2c(cc1F)C1(CO2)C(=O)Nc2ccccc21 (stereo not drawn) [Example 3.7, 5-fluoro-6-methoxyspiro[1-benzofuran-3,3′-indol]-2′(1′H)-one] | < 50 | 222 to 225 | 1 to 10 |
| O=C1Nc2ccccc2C12COc1cc3c(cc12)OCCCO3 (stereo not drawn) [Example 3.11, 3,4-dihydro-2H-spiro[furo[2,3-h][1,5]benzodioxepine-9,3′-indol]-2′(1′H)-one] | < 50 | 235 to 236 | 1 to 10 |
| Cc1nc2cc3c(cc2o1)C1(CO3)C(=O)Nc2ccccc21 (stereo not drawn) [Example 3.12, 2-methylspiro[furo[2,3-f][1,3]benzoxazole-7,3′-indol]-2′(1′H)-one] | < 50 | 242 to 244 | ≥ 10 |
| Cn1c(=O)oc2cc3c(cc21)OCC31C(=O)Nc2ccccc21 (stereo not drawn) [Example 3.13, 3-methylspiro[furo[2,3-f][1,3]benzoxazole-7,3′-indole]-2,2′(1′H,3H)-dione] | < 50 | > 250 | 1 to 10 |
| Cn1c(=O)oc2cc3c(cc21)C1(CO3)C(=O)Nc2ccccc21 (stereo not drawn) [Example 3.14, 1-methylspiro[furo[3,2-f][1,3]benzoxazole-7,3′-indole]-2,2′(1′H,1′H)-dione] | < 50 | > 250 | 1 to 10 |
| CN1C(=O)COc2cc3c(cc21)C1(CO3)C(=O)Nc2ccccc21 (stereo not drawn) [Example 3.22, 1-methyl-1H-spiro[furo[3,2-g][1,4]benzoxazine-8,3′-indole]-2,2′(1′H,3H)-dione] | < 50 | > 250 | 1 to 10 |
| CN1C(=O)COc2cc3c(cc21)OCC31C(=O)Nc2ccccc21 (stereo not drawn) [Example 3.23, 4-methyl-4,7-dihydrospiro[benzofuro[5,6-b][1,4]oxazine-8,3′-indoline]-2′,3(2H)-dione] | < 50 | > 250 | 1 to 10 |
| COc1cc2c(cc1C)[C@@]1(CO2)C(=O)Nc2ccccc21 [Example 3.25, (3S)-6-methoxy-5-methylspiro[1-benzofuran-3,3′-indol]-2′(1′H)-one] | < 50 | > 250 | 1 to 10 |
| COc1cc2c(cc1C)[C@]1(CO2)C(=O)Nc2ccccc21 [Example 3.26, (3R)-6-methoxy-5-methylspiro[1-benzofuran-3,3′-indol]-2′(1′H)-one] | > 50 | > 250 | 1 to 10 |
| O=C1Nc2cc3c(cc2C12COc1cc4c(cc12)CCO4)OCCO3 (stereo not drawn) [Example 3.28, 2′,3′,5,6-tetrahydrospiro[benzo[1,2-b:5,4-b′]difuran-3,8′-[1,4]dioxino[2,3-f]indol]-7′(6′H)-one] | > 50 | > 250 | 1 to 10 |
| N#Cc1cc2c(cc1F)OCC21C(=O)Nc2ccccc21 (stereo not drawn) [Example 3.30, 6-fluoro-2′-oxo-1′,2′-dihydrospiro[1-benzofuran-3,3′-indole]-5-carbonitrile] | < 50 | 222 to 224 | 1 to 10 |
| O=C1Nc2ccccc2C12COc1c(Cl)cc3c(c12)OCCO3 (stereo not drawn) [Example 3.42, 6-chloro-2,3-dihydrospiro[furo[3,2-f][1,4]benzodioxine-9,3′-indol]-2′(1′H)-one] | < 50 | 255 to 257 | 1 to 10 |

Results, then the molecule that gave them:

| inhibition at 10 µM (CYP3A4) [%] | melting point [°C] | IC50 (sodium channel) [µM] | SMILES |
| --- | --- | --- | --- |
| > 50 | 112 to 114 | 1 to 10 | COc1ccc(CN2C(=O)C3(COc4cc(O)c(C#N)cc43)c3ccccc32)cc1 (stereo not drawn) [Example 2.39, 6-hydroxy-1′-(4-methoxybenzyl)-2′-oxo-1′,2′-dihydrospiro[1-benzofuran-3,3′-indole]-5-carbonitrile] |
| < 50 | 210 to 212 | 0.001 to 0.1 | O=C1N(c2ccc(F)cc2)c2ccccc2C12COc1cc3c(cc12)OCCO3 (stereo not drawn) [Example 2.45, 1′-(4-fluorophenyl)-2,3-dihydrospiro[furo[2,3-g][1,4]benzodioxine-8,3′-indol]-2′(1′H)-one] |
| > 50 | > 250 | 0.001 to 0.1 | O=C1N(Cc2ccccn2)c2ccc(Br)cc2C12COc1cc3c(cc12)OCCO3 (stereo not drawn) [Example 2.49, 5′-bromo-1′-(pyridin-2-ylmethyl)-2,3-dihydrospiro[furo[2,3-g][1,4]-benzodioxine-8,3′-indol]-2′(1′H)-one] |
| < 50 | 198 to 199 | 0.001 to 0.1 | N#Cc1ccc2c(c1)C1(COc3cc4c(cc31)OCCO4)C(=O)N2Cc1ccccn1 (stereo not drawn) [Example 2.50, 2′-oxo-1′-(pyridin-2-ylmethyl)-1′,2,2′,3-tetrahydrospiro[furo[2,3-g][1,4]benzodioxine-8,3′-indole]-5′-carbonitrile] |
| > 50 | 62 to 65 | 0.1 to 1 | COc1ccc2c(c1OC)C1(COc3cc4c(cc31)OCCO4)C(=O)N2Cc1ccc(C(F)(F)F)o1 (stereo not drawn) [Example 2.63, 4′,5′-dimethoxy-1′-{[5-(trifluoromethyl)furan-2-yl]methyl}-2,3-dihydrospiro[furo[2,3-g][1,4]benzodioxine-8,3′-indol]-2′(1′H)-one] |
| < 50 | 109 to 110 | 0.1 to 1 | COCCOCCN1C(=O)C2(COc3cc4c(cc32)OCCO4)c2c(OC)ccc(OC)c21 (stereo not drawn) [Example 2.64, 4′,7′-dimethoxy-1′-[2-(2-methoxyethoxy)ethyl]-2,3-dihydrospiro[furo[2,3-g][1,4]benzodioxine-8,3′-indol]-2′(1′H)-one] |
| > 50 | > 200 | 0.001 to 0.1 | O=C1Nc2cccc(Cl)c2C12COc1cc3c(cc12)CCO3 (stereo not drawn) [Example 3.1, 4′-chloro-5,6-dihydrospiro[benzo[1,2-b:5,4-b′]difuran-3,3′-indol]-2′(1′H)-one] |
| > 50 | 206 to 207 | 0.1 to 1 | Cc1cc2c(cc1C)C1(CO2)C(=O)Nc2ccccc21 (stereo not drawn) [Example 3.3, 5,6-dimethylspiro[1-benzofuran-3,3′-indol]-2′(1′H)-one] |
| < 50 | 226 to 227 | 0.1 to 1 | Cc1noc2cc3c(cc12)C1(CO3)C(=O)Nc2ccccc21 (stereo not drawn) [Example 3.6, 3-methylspiro[furo[3,2-f][1,2]benzisoxazole-5,3′-indol]-2′(1′H)-one] |
| < 50 | > 250 | 0.001 to 0.1 | O=C1Nc2ccccc2C12COc1cc3c(cc12)OCCO3 (stereo not drawn) [Example 3.10, 2,3-dihydrospiro[furo[2,3-g][1,4]benzodioxine-8,3′-indol]-2′(1′H)-one] |
| < 50 | > 250 | 0.1 to 1 | O=C1Nc2c(Cl)cccc2C12COc1cc3c(cc12)CCO3 (stereo not drawn) [Example 3.15, 7′-chloro-5,6-dihydrospiro[benzo[1,2-b:5,4-b′]difuran-3,3′-indol]-2′(1′H)-one] |
| < 50 | > 250 | 0.1 to 1 | O=C1Nc2c(F)cccc2C12COc1cc3c(cc12)CCO3 (stereo not drawn) [Example 3.16, 7′-fluoro-5,6-dihydrospiro[benzo[1,2-b:5,4-b′]difuran-3,3′-indol]-2′(1′H)-one] |
| > 50 | > 250 | 0.1 to 1 | Cc1ccc(F)c2c1NC(=O)C21COc2cc3c(cc21)CCO3 (stereo not drawn) [Example 3.17, 4′-fluoro-7′-methyl-5,6-dihydrospiro[benzo[1,2-b:5,4-b′]difuran-3,3′-indol]-2′(1′H)-one] |
| < 50 | 216 to 220 | 0.1 to 1 | O=C1Nc2ccccc2C12COc1cc3c(cc12)CCCO3 (stereo not drawn) [Example 3.21, 6,7-dihydro-5H-spiro[furo[3,2-g]chromene-3,3′-indol]-2′(1′H)-one] |
| < 50 | 282 to 285 | 0.001 to 0.1 | O=C1Nc2cccc(F)c2C12COc1cc3c(cc12)OCCO3 (stereo not drawn) [Example 3.33, 4′-fluoro-2,3-dihydrospiro[furo[2,3-g][1,4]benzodioxine-8,3′-indol]-2′(1′H)-one] |
